Results from patent US8105581B2, “Compositions and methods for inducing neuronal differentiation” (The Scripps Research Institute, priority 2005, dated 2012).
Entries after “also recorded” stand apart in the source; their conditions may differ.

Assays:
Format in all cases: cell-based, rat
[1] = test system: HCN cells (adult hippocampal neural progenitor cells); assay: Neuronal and astroglial differentiation of HCN cells by TuJ1/GFAP double-immunofluorescence staining; details: for Relative activity at ECmax: ECmax relative to Compound A, compound 2 (100) and DMSO (0 or no active, N/A), AP = Anti-proliferation
Description: Cell Culture: Neural precursor cells isolated from the hippocampus of adult female Fischer 344 rats^(1) were maintained in N2 supplemented (Invitrogen) DMEM: Ham's F12 (Omega scientific) medium containing 20 ng/mL FGF-2 (PeproTech Inc.) HCN cells were expanded and maintained in an undifferentiated state on a polyornithine/laminin-coated dish in a defined serum-free growth medium (DMEM/F12 supplemented with N2 and 20 ng/ml bFGF) in a homogeneous monolayer. Neuronal and astroglial differentiation was analyzed directly with double-immunofluorescence staining of βIII tubulin (TuJ1) as a neuronal marker and glial fibrillary acidic protein (GFAP) as an astroglial marker. A combinatorial heterocycle library of 50,000 compounds was screened using undifferentiated, early passage HCN cells plated onto polyornithine/lamin-coated 384-well plates at a density of 6,000 cells/well in complete growth medium. After overnight incubation, the medium was exchanged with bFGF-free basal medium, and 5 μM of the compounds (final concentration) were added to each well. After treatment with compound for four days, cells were fixed and stained with βIII tubulin/TUJ1 and GFAP antibodies, the morphology of positively stained cells was analyzed, and the number of cells with the desired phenotypes was counted.
(§1) Immunocytochenzistry: Cells were fixed with 4% paraformaldehyde for 30 min and washed with PBS, and then blocked for 1 hour at room temperature in PBS containing 0.3% Triton X-100 and 5% donkey serum (PBS-B). Samples were incubated in PBS-B containing dilutions (1:1500) of two primary antibodies for 24 hrs at 4° C., washed three times with PBS, and incubated w secondary antibodies conjugated to Cy3 (Jackson ImmunoResearch Laboratories, Inc.) Alexa Fluor 488 (Molecular Probe Inc.). The samples then were treated with 1 μg/mL 4′,6-diamidino-2-phenylindole (DAPI) for 30 min at room temperature, and then washed three times with PBS.
A combinatorial heterocycle library of 50,000 compounds was screened using undifferentiated, early passage HCN cells plated onto polyornithine/lamin-coated 384-well plates at a density of 6,000 cells/well in complete growth medium. After overnight incubation, the medium was exchanged with bFGF-free basal medium, and 5 μM of the compounds (final concentration) were added to each well. After treatment with compound for four days, cells were fixed and stained with βIII tubulin/TUJ1 and GFAP antibodies, the morphology of positively stained cells was analyzed, and the number of cells with the desired phenotypes was counted.

[2] = test system: HCN cells; assay: Astroglial differentiation of HCN cells induced by LIF/BMP2/FBS; details: 50 ng/ml LIF, 50 ng/ml BMP2 and 0.5% FBS; compound A 20 μM, RA 5 μM; listed as Compound A
[3] = test system: Sox2; assay: Semi-quantitative RT-PCR of marker genes: Sox2; details: HCN cells, 10 μM Compound A versus compound-free N2 medium
[4] = test system: HCN cells; assay: BrdU proliferation assay; details: HCN cells treated 5 hours in bFGF-free N2 medium; 15, 10, 5 μM Compound A or 1, 0.5, 0.25 μM RA; BrdU 2 hours
Description: BrdU proliferation assay: Cells were treated with compounds (Compound A and
(§2) RA). After 5 hours, the medium was changed and 10 μM of 5-bromo-2′-deoxy-uridine (BrdU) (final concentration) was added to each well. After treatment with BrdU for 2 hours, cells were fixed, washed three times with 01M Tris-buffer, and incubated in 2N HCl at 37° for 30 min. After treatment with 0.1M borate buffer (pH 8.5) for 10 min, cells were washed three times with PBS and treated with blocking buffer (PBS containing 0.3% Triton-X and 5% donkey serum) for 60 min. After overnight incubation with anti-BrdU (1:400) antibody, cells were washed with PBS and incubated with secondary antibody conjugated to Cy3 (1:1000) for 2 hours. After washing with PBS, BrdU-positive cells were counted.

[5] = test system: HCN cells; assay: Cytotoxic effects on HCN cells
[6] = test system: NeuroD1 and NeuN; assay: BrdU labeling with immunocytochemistry to detect NeuroD1 and NeuN; details: HCN cells (FIG. 4)
Description: as §1, §2

[7] = test system: NeuroD1; assay: Semi-quantitative RT-PCR of marker genes: NeuroD1; details: HCN cells, 10 μM Compound A versus compound-free N2 medium
[8] = HCN cells treated with Compound A

Row | Compound | Relative activity at ECmax [1] | inhibition of astroglial differentiation induced by LIF and BMP2 [2] | Sox2 (neural progenitor marker) mRNA level [3] | cell proliferation (BrdU-positive cells) [4] | cells differentiated into neuronal cells (immunostaining with TuJ1 and characteristic neuronal morphology) [1, 8] | neuronal differentiation-inducing activity (screen and sublibrary) ([1]; HCN cells, bFGF-free basal medium, four days) | lineage specificity: GFAP-positive (astroglial) versus neuronal cells after treatment ([1]; four days in N2 media, 10 μM Compound A or 2 μM RA (FIG. 2)) | staining for later stage neuronal markers neurofilament-H and Map2(a+b) ([1]; seven days of treatment with 10 μM Compound A) | visible cytotoxic effects [5, 8] | expression of neuron-specific marker genes NeuroD1 and NeuN [6] | NeuroD1 (neuronal cell marker) mRNA level [7] | cytotoxicity ([5]; over 2 μM in growth factor (bFGF or LIF/BMP2)-free basal medium)
1 | ethyl 4-(2-phenylthiazol-4-ylamino) benzoate [Compound 1] | 10 |  |  |  |  |  |  |  |  |  |  | 
2 | CCOC(=O)c1ccc(N(C)c2csc(-c3ccccc3)n2)cc1 [Compound 2] | 100 | can also inhibit astroglial differentiation; also recorded: can competitively suppress astrogliogenesis by LIF/BMP2/FBS in a dose-dependent manner | down-regulated | significantly slowed cell proliferation | more than 90% | highest activity among the analogues tested | GFAP-positive cells were very rarely detected | positive staining | without visible cytotoxic effects | induces expression of neuron-specific marker genes | up-regulated | 
3 | CC1=C(/C=C/C(C)=C/C=C/C(C)=C/C(=O)O)C(C)(C)CCC1 [RA, retinoic acid, reference compound] |  |  |  |  |  |  |  |  |  |  |  | significant cytotoxicity
